These are literature values, as cited in patent US20240131116A1, “METHODS AND THREAPEUTIC COMBINATIONS FOR TREATING IDIOPATHIC INTRACRANIAL HYPERTENSION AND CLUSTER HEADACHES” (NBO PHARMA LLC, priority 2021, published 2024).

Data set [1] has as its system IIH. The settings on record: for most frequent / most common side effects / visual field grades: topiramate 100 to 150 mg daily, acetazolamide 1000 to 1500 mg/day.
The conditions of data set [2]: all patients treated.
The test system of data set [3] is IIH.
The conditions of data set [4]: human, in vivo.
For data set [5] the following is noted: in vivo.

Consider `CC(=O)Nc1nnc(S(N)(=O)=O)s1` [acetazolamide, N-(5-sulfamoyl-1,3,4-thiadiazol-2-yl) acetamide], for which, in data set [1], the “most frequent / most common side effects” value was “fatigue and tingling of the hands and feet”; the visual field grades result is reported as “Significant improvement”. Besides, in data set [2], the “patients who discontinued treatment due to adverse events” value is on record as “Up to 20%”. For the same molecule, the “vision (perimetric mean deviation, papilledema grade, vision-related quality of life) versus placebo” value in data set [3] (maximum tolerated dose of up to 4 g/day) is recorded as “improved vision”. The “adverse events significantly more frequent than in placebo group” value in data set [3] (up to 4 g/day) was “paresthesia, dysgeusia, fatigue, decreased carbon dioxide level, nausea, vomiting, diarrhea, and tinnitus”.

With `NS(=O)(=O)c1ccc(N2CCCCS2(=O)=O)cc1` [sulthiame, p-(tetrahydro-2H-1,2-thiazin-2-yl)benzenesulfonamide, S,S-dioxide], the “patients with gastric complaints” value in data set [4] is listed as “about 10%”.

On to `CC1(C)O[C@@H]2[C@@H](CO[C@@]3(COS(N)(=O)=O)OC(C)(C)O[C@@H]23)O1` [topiramate, 2,3:4,5-bis-O-(1-methylethylidene)-beta-D-fructopyranose sulfamate], for which, in data set [1] (during 12 months period), the “weight loss, mean” value was 9.75 kg. Further, in data set [1], the “most frequent / most common side effects” value was “distal paresthesias, concentration difficulties and weight loss”; the visual field grades result is “Significant improvement”.

As to “L-alanyl-glycyl-L-cysteinyl-L-lysyl-L-asparagyl-L-phenylalanyl-L-phenylalanyl-L-tryptophyl-L-lysyl-L-threonyl-L-phenylalanyl-L-threonyl-L-seryl-L-cysteine (3->14)-disulfide [somatostatin]”, in data set [5], the biological half-life is 2-3 minutes.
